Measurements published in ChEMBL document CHEMBL4177643, “Trisubstituted purine inhibitors of PDGFRα and their antileukemic activity in the human eosinophilic cell line EOL-1” (Bioorg Med Chem, 2017).

Legend:
EOL1 [1] = assay: Cell cycle arrest in human EOL-1 cells assessed as G1/G2-M ratio at GI50 concentration after 24 hrs by propidium iodide staining-based flow cytometry relative to control; format: functional
BT-474 = assay: Cytotoxicity against human BT474 cells assessed as growth inhibition after 72 hrs by calcein-AM dye based fluorescence assay; format: functional; conditions: BT-474, 72 h
[2] = target: Cyclin-dependent kinase 2/cyclin E1 (Homo sapiens, UniProt P24941); assay: Inhibition of CDK2/cyclin E (unknown origin) expressed in baculovirus infected insect Sf9 cells using histone H1 as substrate in presence of [gamma-33P]ATP
K562 [3] = assay: Cell cycle arrest in human K562 cells assessed as G1/G2-M ratio at GI50 concentration after 24 hrs by propidium iodide staining-based flow cytometry relative to control; format: functional
HCC827 [4] = assay: Cytotoxicity against human HCC827 cells assessed as growth inhibition after 72 hrs by calcein-AM dye based fluorescence assay; format: functional; conditions: HCC827, 72 h
[5] = target: Platelet-derived growth factor receptor alpha (Homo sapiens, UniProt P16234); assay: Inhibition of recombinant human N-terminal GST-His6 tagged PDGFRalpha (Q551 to L1089 residues) expressed in Sf9 insect cells using poly(Ala,Glu,Lys,Tyr)6:2:5:1 hydrobromide as substrate in presence of [gamma-33P]ATP
K562 [6] = assay: Cytotoxicity against human K562 cells assessed as growth inhibition after 72 hrs by calcein-AM dye based fluorescence assay; format: functional; conditions: K562, 72 h
MCF7 = assay: Cytotoxicity against human MCF7 cells assessed as growth inhibition after 72 hrs by calcein-AM dye based fluorescence assay; format: functional; conditions: MCF7, 72 h
HCC827 [7] = assay: Cell cycle arrest in human HCC827 cells assessed as G1/G2-M ratio at GI50 concentration after 24 hrs by propidium iodide staining-based flow cytometry relative to control; format: functional
EOL1 [8] = assay: Cytotoxicity against human EOL-1 cells assessed as growth inhibition after 72 hrs by calcein-AM dye based fluorescence assay; format: functional; conditions: EOL1, 72 h

Sequence of Platelet-derived growth factor receptor alpha (P16234 whole entry, the tested form may be a part): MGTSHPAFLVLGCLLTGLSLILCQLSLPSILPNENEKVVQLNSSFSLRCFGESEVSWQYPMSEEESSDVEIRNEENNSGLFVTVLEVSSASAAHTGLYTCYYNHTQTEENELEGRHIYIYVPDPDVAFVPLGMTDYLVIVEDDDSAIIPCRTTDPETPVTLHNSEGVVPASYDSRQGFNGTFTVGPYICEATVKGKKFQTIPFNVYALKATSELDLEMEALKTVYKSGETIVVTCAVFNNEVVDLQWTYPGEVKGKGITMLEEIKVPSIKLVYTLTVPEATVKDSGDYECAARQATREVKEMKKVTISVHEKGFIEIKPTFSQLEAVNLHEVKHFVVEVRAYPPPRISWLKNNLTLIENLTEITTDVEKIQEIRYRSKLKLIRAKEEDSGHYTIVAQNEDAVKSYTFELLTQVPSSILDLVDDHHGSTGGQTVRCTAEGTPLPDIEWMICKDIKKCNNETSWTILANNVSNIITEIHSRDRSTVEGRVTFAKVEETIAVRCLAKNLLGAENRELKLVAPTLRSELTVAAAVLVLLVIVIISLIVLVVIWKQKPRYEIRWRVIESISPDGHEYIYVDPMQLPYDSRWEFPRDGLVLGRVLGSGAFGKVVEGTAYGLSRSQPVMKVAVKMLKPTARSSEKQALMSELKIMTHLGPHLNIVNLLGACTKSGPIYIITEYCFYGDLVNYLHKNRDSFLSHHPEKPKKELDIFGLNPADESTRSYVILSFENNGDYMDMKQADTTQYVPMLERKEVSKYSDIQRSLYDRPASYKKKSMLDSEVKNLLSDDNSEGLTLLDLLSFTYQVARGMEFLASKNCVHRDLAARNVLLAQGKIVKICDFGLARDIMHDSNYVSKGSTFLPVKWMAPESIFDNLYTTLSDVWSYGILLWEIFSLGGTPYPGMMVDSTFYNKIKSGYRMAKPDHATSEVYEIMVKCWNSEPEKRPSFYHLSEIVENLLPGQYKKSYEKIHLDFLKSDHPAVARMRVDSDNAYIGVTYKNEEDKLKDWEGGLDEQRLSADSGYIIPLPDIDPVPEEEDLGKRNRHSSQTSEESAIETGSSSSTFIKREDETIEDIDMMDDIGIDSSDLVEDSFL

Structure (SMILES)	Ratio (EOL1 [1])	GI50 (BT-474) [µM]	IC50 [2] [µM]	Ratio (K562 [3])	GI50 (HCC827 [4]) [µM]	IC50 [5] [µM]	GI50 (K562 [6]) [µM]	GI50 (MCF7) [µM]	Ratio (HCC827 [7])	GI50 (EOL1 [8]) [µM]
CCn1cnc2c(Nc3cccc(Cl)c3)nc(N[C@@H]3CCCC[C@@H]3N)nc21	1.28	5.4	0.017	0.48	12.2	> 20	4.8	3.3	0.29	0.99
CCCCn1cnc2c(Nc3ccccc3)nc(N[C@H]3CC[C@H](N)CC3)nc21	4.93	4.9	0.134	2.29	9	0.16	3.2	2.2	0.33	0.02
CC(C)=CCC/C(C)=C/Cn1cnc2c(Nc3cccc(Cl)c3)nc(N[C@H]3CC[C@H](N)CC3)nc21	1.13	4.3	7.17	1.78	18.2	4.74	2.2	3.6	1.94	0.59
CC(C)CCn1cnc2c(Nc3cccc(O)c3)nc(N[C@H]3CC[C@H](N)CC3)nc21	8.94	14.7	0.513	1.22	21.3	0.066	7.6	12.6	5.6	0.06
CC(C)CCn1cnc2c(NCc3cccc(Cl)c3)nc(N[C@H]3CC[C@H](N)CC3)nc21	1.77	6.6	0.306	1.85	16.7	> 20	3.1	4.7	2.5	1.33
CCCCCCn1cnc2c(Nc3ccc(O)cc3)nc(N[C@H]3CC[C@H](N)CC3)nc21	2.5	7.7	0.485	0.69	24.7	0.452	5.4	3.5	0.44	0.19
CC(C)=CCn1cnc2c(Nc3cccc(Cl)c3)nc(N[C@H]3CC[C@H](N)CC3)nc21	3.1	7	0.227	0.75	13.5	0.187	3.5	4.2	2.69	0.08
CCCCn1cnc2c(Nc3cccc(Cl)c3)nc(N[C@H]3CC[C@H](N)CC3)nc21	10.75	5.1	0.132	0.78	7.2	0.154	2	2	0.54	0.16
COc1ccc(Nc2nc(N[C@H]3CC[C@H](N)CC3)nc3c2ncn3CCC(C)C)c(OC)c1	1.65	7.9	5.97	1	32.9	3.2	5.5	6.3	23.09	0.63
CCCCCCn1cnc2c(Nc3cc(OC)cc(OC)c3)nc(N[C@H]3CC[C@H](N)CC3)nc21	3.78	3.7	0.68	1.4	9.1	1.41	1.9	3.5	9.67	0.38
CCCCn1cnc2c(Nc3ccc(Cl)cc3)nc(N[C@H]3CC[C@H](N)CC3)nc21	6.43	7.3	0.117	1.52	10.8	0.06	2.7	2.1	0.28	0.05
CC(C)CCn1cnc2c(Nc3ccccc3)nc(N[C@H]3CC[C@H](N)CC3)nc21	1.67	6.4	0.627	1.2	21.7	0.096	3.5	5.4	0.39	0.01
N[C@H]1CC[C@H](Nc2nc(Nc3ccc(O)cc3)c3ncn(C4CCCCC4)c3n2)CC1	2.44	27.3	1.44	0.95	32.5	1.23	8.9	9.6	9.61	0.22
COc1cc(Nc2nc(N[C@H]3CC[C@H](N)CC3)nc3c2ncn3CCC(C)C)cc(OC)c1	3.71	5.9	0.98	1.6	11.2	0.29	2.5	4.5	1.47	0.14
CCCCCCn1cnc2c(Nc3ccc(Cl)cc3)nc(N[C@H]3CC[C@H](N)CC3)nc21	4.61	5.5	0.433	0.88	11.7	0.156	2.1	4.2	5.2	0.44
CC(C)CCn1cnc2c(Nc3ccc(O)cc3)nc(N[C@H]3CC[C@H](N)CC3)nc21	1.17	7.7	0.49	0.73	14.4	0.15	4.6	3.1	2.71	0.03
COc1ccc(Cn2cnc3c(Nc4cccc(Cl)c4)nc(N[C@H]4CC[C@H](N)CC4)nc32)cc1	0.96	8.2	5.5	1.43	18.7	7.66	2.8	4.8	1.94	0.53
CCCCn1cnc2c(Nc3cc(OC)cc(OC)c3)nc(N[C@H]3CC[C@H](N)CC3)nc21	1.3	15.6	0.442	0.82	20.1	1.5	2.4	4.5	1.35	0.37
N[C@H]1CC[C@H](Nc2nc(Nc3ccc(Cl)cc3)c3ncn(C4CCCCC4)c3n2)CC1	2.64	4.1	0.965	0.79	9.1	1.09	1.7	2.3	2.68	0.14
CC(C)CCn1cnc2c(Nc3ccc(Cl)cc3)nc(N[C@H]3CC[C@H](N)CC3)nc21	7.8	5.1	0.319	0.81	10.2	0.059	1.8	2.7	3.5	0.09
CCCCCCn1cnc2c(Nc3cccc(Cl)c3)nc(N[C@H]3CC[C@H](N)CC3)nc21	1.86	5.1	0.5	0.79	10.2	0.195	2.3	2.7	7.37	0.31
CCCCn1cnc2c(NCc3cccc(Cl)c3)nc(N[C@H]3CC[C@H](N)CC3)nc21	0.99	4.7	0.207	1.27	10.6	> 20	4.3	2.2	0.26	0.35
N[C@H]1CC[C@H](Nc2nc(Nc3cccc(Cl)c3)c3ncn(Cc4ccccc4)c3n2)CC1	0.99	10.2	2.83	1.76	13.7	5.1	3	3.6	10.37	0.38
CS(=O)(=O)CCNCc1ccc(-c2ccc3ncnc(Nc4ccc(OCc5cccc(F)c5)c(Cl)c4)c3c2)o1 [LAPATINIB]	–	0.2	–	–	22.3	–	5.7	8.1	–	0.41
